The source of these data is ChEMBL document CHEMBL1795209, “1-Chloro-2-formyl indenes and tetralenes as antitubercular agents” (Bioorg Med Chem Lett, 2011).

≈ marks a conversion by molar mass, not a printed value. Calls of active or inactive are those of the source. The calls are words filed in the database; no cut-off is given here.

Data set [1] concerns Mycobacterium tuberculosis. Nature of the data set: Antitubercular activity against Mycobacterium tuberculosis H37Rv by Bactec 460 method. The class given is functional.
Data set [2] has as its system Mycobacterium tuberculosis. Nature of the data set: Antitubercular activity against Mycobacterium tuberculosis H37Rv at 500 ug/ml by Bactec 460 method. In kind it is functional, organism-based.
Data set [3] relates to Mus musculus. The data set can be described thus: Acute toxicity in Swiss albino mouse assessed as observational changes at 5 to 300 mg/kg, po administered as single dose. The class given is organism-based. Also on record: dose 5-300 mg/kg, route oral. The settings on record: in vivo.
For data set [4], the system named is Mus musculus. The data set can be described thus: Acute toxicity in Swiss albino mouse assessed as morbidity at 5 to 300 mg/kg, po administered as single dose. More on the design: dose 5-300 mg/kg, route oral. In kind it is organism-based. The settings on record: in vivo.
In data set [5] the test system is Mus musculus. The data set can be described thus: Acute toxicity in Swiss albino mouse assessed as mortality at 5 to 300 mg/kg, po administered as single dose. The class given is organism-based. More on the design: dose 5-300 mg/kg, route oral. The settings on record: in vivo.
In data set [6] the test system is Mus musculus. The data set can be described thus: Acute toxicity in Swiss albino mouse assessed as change in total RBC at 5 to 300 mg/kg, po administered as single dose. The class given is organism-based. Also on record: dose 5-300 mg/kg, route oral. As to conditions: in vivo.
Data set [7] relates to Mus musculus. Nature of the data set: Acute toxicity in Swiss albino mouse assessed as change in total WBC count at 5 to 300 mg/kg, po administered as single dose. More on the design: dose 5-300 mg/kg, route oral. The class given is organism-based. As to conditions: in vivo.
Data set [8] deals with Mus musculus. The data set can be described thus: Acute toxicity in Swiss albino mouse assessed as change in differential leukocyte count at 5 to 300 mg/kg, po administered as single dose. Also on record: dose 5-300 mg/kg, route oral. As to conditions: in vivo. In kind it is organism-based.
Data set [9] relates to Mus musculus. The data set can be described thus: Acute toxicity in Swiss albino mouse assessed as change in hemoglobin level at 5 to 300 mg/kg, po administered as single dose. As to conditions: in vivo. In kind it is organism-based. More on the design: dose 5-300 mg/kg, route oral.
Data set [10] relates to Mus musculus. Nature of the data set: Acute toxicity in Swiss albino mouse assessed as change in serum total cholesterol level at 5 to 300 mg/kg, po administered as single dose. In kind it is organism-based. Also on record: dose 5-300 mg/kg, route oral. The settings on record: in vivo.
The subject of data set [11] is Mus musculus. The data set can be described thus: Acute toxicity in Swiss albino mouse assessed as change in triglyceride level at 5 to 300 mg/kg, po administered as single dose. In kind it is organism-based. More on the design: dose 5-300 mg/kg, route oral. The settings on record: in vivo.
The subject of data set [12] is Mus musculus. Nature of the data set: Acute toxicity in Swiss albino mouse assessed as change in creatinine level at 5 to 300 mg/kg, po administered as single dose. In kind it is organism-based. More on the design: dose 5-300 mg/kg, route oral. As to conditions: in vivo.
For data set [13], the system named is Mus musculus. The data set can be described thus: Acute toxicity in Swiss albino mouse assessed as change in SGPT level at 5 to 300 mg/kg, po administered as single dose. The class given is organism-based. More on the design: dose 5-300 mg/kg, route oral. As to conditions: in vivo.
In data set [14] the test system is Mus musculus. The data set can be described thus: Acute toxicity in Swiss albino mouse assessed as change in SGOT level at 5 to 300 mg/kg, po administered as single dose. In kind it is organism-based. Also on record: dose 5-300 mg/kg, route oral. The settings on record: in vivo.
The test system of data set [15] is Mus musculus. Nature of the data set: Acute toxicity in Swiss albino mouse assessed as change in absolute and relative weight of the organs at 5 to 300 mg/kg, po administered as single dose. Also on record: dose 5-300 mg/kg, route oral. In kind it is organism-based. The settings on record: in vivo.
A short description of data set [16]: Acute toxicity in po dosed Swiss albino mouse administered as single dose. The class given is organism-based. The settings on record: in vivo.

For orientation: MIC means the least concentration at which growth counts as inhibited. A low value points to inhibition by little substance. For `COc1cc2c(cc1C=O)C=CCC2`, the MIC in data set [1] turned out to be 500 µg/mL (≈ 2660 µM).

In data set [1], `COc1ccc2c(c1)CCCC2OC(C)=O` (configuration not stated) registered an MIC of 30 µg/mL (≈ 136 µM). The molecule `O=CC1=C(Cl)c2ccccc2CC1` displayed an MIC in [1] of 60 µg/mL (≈ 311 µM).

For the molecule `COc1ccc2c(c1)CCC/C2=N\O`, the MIC in data set [1] came out at 500 µg/mL (≈ 2610 µM). As for `COc1ccc2c(c1)C(Cl)=C(C=O)C1C2CC[C@@]2(C)C1CC[C@@H]2OC(C)=O` (some centres not stated), the outcome in data set [2] was inactive. Regarding `O=CC1=C(Cl)c2ccc(Cl)cc2C1`, the MIC in [1] was 125 µg/mL (≈ 587 µM).

`COc1ccc2c(c1)CCCC2` showed an MIC in data set [1] of 125 µg/mL (≈ 771 µM).

`Cc1cccc2c1C(Cl)=C(C=O)C2` had an MIC in data set [1] of 125 µg/mL (≈ 649 µM). For the molecule `O=CC1=C(Cl)c2ccccc2C1c1ccccc1` (configuration not stated), the lowest concentration to inhibit growth in [1] (MIC) was 250 µg/mL (≈ 981 µM). Consider `COc1ccc2c(c1)CCCC2O` (configuration not stated), for which the outcome in data set [2] was inactive.

In turn, `CO[C@H]1CCC(=O)c2cccc(O)c21` gave an MIC in data set [1] of 6.25 µg/mL (≈ 32.5 µM). For `CC1CC(C=O)=C(Cl)c2ccccc21` (configuration not stated), the MIC in [1] came to 125 µg/mL (≈ 605 µM). In data set [1], `O=Cc1cc2ccccc2c(Cl)c1C=O` yielded an MIC of 500 µg/mL (≈ 2290 µM). On the same count and under the same terms, as for `COc1ccc2c(c1)CCC(C=O)=C2Cl`, the figure is 125 µg/mL (≈ 561 µM). `CO[C@H]1/C=C/O[C@@]2(C)Oc3c(C)c(O)c4c(O)c(c(/C=N/N5CCN(C)CC5)c(O)c4c3C2=O)NC(=O)/C(C)=C\C=C\[C@H](C)[C@H](O)[C@@H](C)[C@@H](O)[C@@H](C)[C@H](OC(C)=O)[C@@H]1C` [RIFAMPIN] had an MIC in [1] of 2 µg/mL (≈ 2.43 µM). With `COc1ccc2c(c1)CCC(OC=O)=C2Cl`, the MIC in [1] was 30 µg/mL (≈ 126 µM). The Activity entry with Mus musculus [3], with Mus musculus [4], in the data set on Mus musculus [5], with Mus musculus [6], in the data set on Mus musculus [7] and in the data set on Mus musculus [8] was “Non-toxic” in each case. The Activity result in the data set on Mus musculus [9], in the data set with Mus musculus [10], in the data set on Mus musculus [11], in the data set on Mus musculus [12], in the data set with Mus musculus [13] and in the data set on Mus musculus [14] was “Non-toxic” throughout. In addition, the Activity result with Mus musculus [15] was “Non-toxic”. Moreover, in data set [16], the MTD was determined as 300 mg/kg. In the case of `COc1ccc2c(c1)CC(C=O)=C2Cl`, the MIC in [1] worked out at 125 µg/mL (≈ 599 µM). In data set [1], `Cc1cc(O)c2c(c1)[C@H](O)CCC2=O` [SHINANOLONE] came in with an MIC of 100 µg/mL (≈ 520 µM). In the case of `COc1ccc2c(c1)CCC(CO)=C2Cl`, the minimal inhibitory concentration (MIC) in data set [1] stood at 500 µg/mL (≈ 2230 µM). `COc1cc(C2C(C=O)=C(Cl)c3cc(OC)c(OC)c(OC)c32)cc(OC)c1OC` (configuration not stated): the outcome in data set [2] was inactive. Regarding `CN[C@@H]1[C@H](O[C@H]2[C@H](O[C@H]3[C@H](O)[C@@H](O)[C@H](N=C(N)N)[C@@H](O)[C@@H]3N=C(N)N)O[C@@H](C)[C@]2(O)C=O)O[C@@H](CO)[C@H](O)[C@H]1O` [STREPTOMYCIN], in [1], the MIC was found to be 2 µg/mL (≈ 3.44 µM). Take `O=CC1=C(Cl)c2cc3c(cc2C1)OCO3`: in [1], the minimal inhibitory concentration (MIC) is 125 µg/mL (≈ 561 µM). Turning to `Cc1ccc2c(c1)CC(C=O)=C2Cl`, in [1], the MIC was determined as 250 µg/mL (≈ 1300 µM).
